Experimental data published in patent US20250268859A1, “OXAFURAMINE, (1R)-N-ETHYL-1-[(2R)-OXOLAN-2-YL]-2-[…], HYDROCHLORIDE AND DERIVATIVES THEREOF FOR TREATING ALZHEIMER'S DISEASE (AD), […] […], […] WITH LEWY BODIES (DLB), MIXED […], FRON[…] DEGENERATION (FTLD), AND PARKINSON'S DISEASE (PD)” (NLS Pharmaceutics AG, priority 2021, published 2025).

Biological target: T1, Relaxin-3 (RXFP3) (h) (Homo sapiens, UniProt Q9NSD7)
T1 sequence (Q9NSD7 1-469): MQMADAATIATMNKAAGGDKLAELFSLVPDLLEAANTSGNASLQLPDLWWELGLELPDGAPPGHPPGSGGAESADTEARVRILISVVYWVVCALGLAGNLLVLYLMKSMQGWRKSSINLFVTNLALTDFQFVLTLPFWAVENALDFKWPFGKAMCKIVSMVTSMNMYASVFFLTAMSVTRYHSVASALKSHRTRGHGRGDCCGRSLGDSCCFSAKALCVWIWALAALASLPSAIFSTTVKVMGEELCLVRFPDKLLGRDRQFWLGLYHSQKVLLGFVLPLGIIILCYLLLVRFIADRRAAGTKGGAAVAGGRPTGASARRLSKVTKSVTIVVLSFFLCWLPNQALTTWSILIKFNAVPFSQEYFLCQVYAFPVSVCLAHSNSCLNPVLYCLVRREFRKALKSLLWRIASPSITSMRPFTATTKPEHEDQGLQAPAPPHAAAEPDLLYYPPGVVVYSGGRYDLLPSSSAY
Assay: Relaxin-3 (RXFP3) (h) (agonist radioligand)
Format: binding
Protocol: Oxafuramine is tested at 10^−5 M, calculated as a % inhibition of control specific binding of a radioactively labeled ligand specific for each target.
The results are expressed as a % control specific binding ([measured specific binding/control specific binding]×100) and as a % inhibition of control specific binding (100−[(measured specific binding/control specific binding)×100]) obtained in the presence of the test compounds.
Results showing an inhibition (or stimulation) lower than 25% are not considered significant and mostly attributable to variability of the signal around the control level. […]
• 1. cAMP Hunter cell lines were expanded from freezer stocks according to standard procedures. • 2. Cells were seeded in a total volume of 20 μL into white walled, 384-well microplates and incubated at 37° C. for the appropriate time prior to testing. • 3. cAMP modulation was determined using the DiscoverX HitHunter cAMP XS+ assay. […]
[formula] • 6. For Gi positive allosteric mode assays, percentage modulation is calculated using the following formula: % Modulation=100%×(1−(mean RLU of test sample−mean RLU of MAX control) /(mean RLU of EC20 control−mean RLU of MAX control)). • 7. […]

In the case of `CCN[C@H](Cc1ccccc1)[C@H]1CCCO1` [Oxafuramine, (1R)—N-ethyl-1-[(2R)-oxolan-2-yl]-2-phenylethanamine], the “% Inhibition at 10^−5M, Relaxin-3 (RXFP3) (h) (agonist radioligand)” value is reported as “weakly target” and the inhibition at 10 µM (10^−5 M) is reported as 16.5%.
